Source: patent US5478946A, “Guanidino compounds as regulators of nitric oxide synthase” (Abbott Laboratories, priority 1993, dated 1995)

Tested on: RFL-6 rat fetal lung fibroblast cells
Assay: cGMP assay, RFL-6 cells as detectors of EDRF/NO
Format: cell-based
Conditions: presence of superoxide dismutase; 6-well plates
Text: In those instances where it is suspected that the test substance is acting as a substrate rather than an inhibitor, the EDRF/NO may be estimated. For this confirmation bioassay, a method for quantification of endothelium-derived relaxing factor (EDRF) is utilized and is described in detail below. This technique, measuring cyclic GMP responses of RFL-6 rat fetal lung fibroblast cells to estimate NO or EDRF is sensitive, simple and quite useful for the evaluation of compounds that regulate EDRF/NO release from various endothelial cells, or other cells or tissues (such as for example RAW cells (induced with LPS) and N1E-115 cells). (cf. Ishii, K., et al., American Journal of Physiology, 1991,261:(2 pt 2) H598-603). The cyclic GMP measured is an indirect measure of the amount of EDRF/NO produced by NO synthase, so compounds that reduce the amount of cyclic GMP produced are termed inhibitors of NO synthase, and those that increase cyclic GMP in the absence of exogenous L-arginine are termed substrates or stimulators of NO synthase.
This is a new bioassay method for detection and quantification of endothelium-derived relaxing factor (EDRF) wherein cyclic GMP responses of RFL-6 rat fetal lung fibroblast cells are utilized to estimate the activity of nitric oxide (NO) and EDRF. […]

With nitric oxide [NO] the “lowest concentration of NO to which RFL-6 cells responded” value was 2 nM.
